Patent publication US8853230B2, “Inhibitors of JAK” (Portola Pharmaceuticals, Inc., priority 2009, dated 2014)

Tests used:
TYK2 = molecular target: T1, TYK2 (Homo sapiens, UniProt P29597); experiment: Z'-LYTE kinase assay, TYK2 tyrosine phosphorylation activity; type: biochemical
T1 construct: 5 μl of catalytic domain recombinant Kinase enzyme+Tyr peptide substrate (Invitrogen, Calif.); purchased Invitrogen
T1 sequence (P29597 897-1176 limits assumed): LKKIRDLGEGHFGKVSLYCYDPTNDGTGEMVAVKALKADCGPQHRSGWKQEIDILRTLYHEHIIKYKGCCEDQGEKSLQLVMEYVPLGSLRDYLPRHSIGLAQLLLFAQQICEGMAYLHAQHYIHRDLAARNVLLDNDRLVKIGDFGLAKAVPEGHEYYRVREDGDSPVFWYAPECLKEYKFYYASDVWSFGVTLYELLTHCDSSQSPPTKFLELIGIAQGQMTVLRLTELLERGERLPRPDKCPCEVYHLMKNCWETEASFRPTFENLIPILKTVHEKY
Procedure, shortened: (§1)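 Z'-LYTE format using the Tyr6 peptide with recombinant catalytic-domain kinase; 1 h kinase reaction and 1 h development, both at room temperature. IC50s derived from ratiometric FRET signal.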

JAK1 = molecular target: T2, JAK1 (Homo sapiens, UniProt P23458); experiment: Z'-LYTE kinase assay, JAK1 tyrosine phosphorylation activity; type: biochemical; details: read-out: JAK 1 IC50
T2 construct: 5 μl of catalytic domain recombinant Kinase enzyme+Tyr peptide substrate (Invitrogen, Calif.); purchased Invitrogen
Procedure, shortened: as §1

[1] = test system: IL4-induced phospho STAT6 formation in Ramos B lymphocytes; experiment: Inhibition of IL4-induced phospho STAT6 formation in Ramos B lymphocytes (flow cytometry); type: cell-based, human; details: Homo sapiens; for inhibition at 0.2 µM: 200 nM compound, read-out: % Inhibition of IL-4 Induced STAT6 Phosphorylation 200 nM; for inhibition at 1 µM: 1 μM compound, read-out: % Inhibition of IL-4 Induced STAT6 Phosphorylation 1 μM
Procedure, shortened: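 Read-out: phospho-STAT6 (Y641) mean fluorescent intensity by intracellular flow cytometry, expressed as inhibition of the IL4-induced signal. Ramos B lymphocytes were given compound for 1 h at 37°C, then 1 ng/ml IL4 for 10 min, before fixation and methanol permeabilization.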

Syk = Syk (Homo sapiens, UniProt P43405); experiment: Syk IC50 (Table 1; method not given); type: biochemical
JAK3 = molecular target: T3, JAK3 (Homo sapiens, UniProt P52333); experiment: Z'-LYTE kinase assay, JAK3 tyrosine phosphorylation activity; type: biochemical
T3 construct: 5 μl of catalytic domain recombinant Kinase enzyme+Tyr peptide substrate (Invitrogen, Calif.); purchased Invitrogen
Procedure, shortened: as §1

JAK2 = molecular target: T4, JAK2 (Homo sapiens, UniProt O60674); experiment: Z'-LYTE kinase assay, JAK2 tyrosine phosphorylation activity; type: biochemical
T4 construct: 5 μl of catalytic domain recombinant Kinase enzyme+Tyr peptide substrate (Invitrogen, Calif.); purchased Invitrogen
Procedure, shortened: as §1

T3 sequence (P52333 822-1111 limits assumed): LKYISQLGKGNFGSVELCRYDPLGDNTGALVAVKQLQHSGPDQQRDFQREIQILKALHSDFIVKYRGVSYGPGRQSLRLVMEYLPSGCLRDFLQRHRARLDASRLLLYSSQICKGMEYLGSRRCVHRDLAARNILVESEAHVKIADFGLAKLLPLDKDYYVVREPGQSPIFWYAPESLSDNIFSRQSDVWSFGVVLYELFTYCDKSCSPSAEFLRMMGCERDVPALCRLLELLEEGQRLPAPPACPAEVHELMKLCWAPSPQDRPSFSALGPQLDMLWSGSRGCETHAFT
T2 sequence (P23458 875-1153 limits assumed): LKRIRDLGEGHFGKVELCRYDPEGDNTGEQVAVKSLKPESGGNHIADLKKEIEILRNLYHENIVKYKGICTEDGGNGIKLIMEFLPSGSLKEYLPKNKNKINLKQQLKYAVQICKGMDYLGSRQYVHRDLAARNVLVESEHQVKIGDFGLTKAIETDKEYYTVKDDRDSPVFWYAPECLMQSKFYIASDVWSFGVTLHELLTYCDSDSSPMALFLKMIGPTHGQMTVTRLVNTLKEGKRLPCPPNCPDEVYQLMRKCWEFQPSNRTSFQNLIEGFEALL
T4 sequence (O60674 849-1124 limits assumed): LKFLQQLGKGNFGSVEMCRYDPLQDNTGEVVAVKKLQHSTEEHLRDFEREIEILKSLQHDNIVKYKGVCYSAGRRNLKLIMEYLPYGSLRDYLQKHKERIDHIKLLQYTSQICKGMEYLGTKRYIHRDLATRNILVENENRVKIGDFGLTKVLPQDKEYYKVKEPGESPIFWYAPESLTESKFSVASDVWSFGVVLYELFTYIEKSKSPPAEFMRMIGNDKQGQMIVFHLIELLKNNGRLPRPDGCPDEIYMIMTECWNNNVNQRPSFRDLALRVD

| SMILES | IC50 (TYK2) [nM] | IC50 (JAK1) [nM] | IC50 (Syk) [nM] | IC50 (JAK3) [nM] | IC50 (JAK2) [nM] | inhibition at 0.2 µM [1] [%] | inhibition at 1 µM [1] [%] |
| --- | --- | --- | --- | --- | --- | --- | --- |
| COC(=O)Nc1cc(Nc2ncc(C(N)=O)c(N[C@H](C)c3ccccc3)n2)ccc1Cl [Example 129, (R)-methyl 5-(5-carbamoyl-4-(1-phenylethylamino)pyrimidin-2-ylamino)-2-chlorophenylcarbamate] | 100 to 1000 | > 1000 | > 1000 | 10 to 100 | 100 to 1000 | 4 | 16.7 |
| CC(=O)Nc1cccc(Nc2ncc(C(N)=O)c(N[C@@H]3CCCNC3)n2)c1 [Example 66, (R)-2-(3-acetamidophenylamino)-4-(piperidin-3-ylamino)pyrimidine-5-carboxamide] | 100 to 1000 | 100 to 1000 | > 1000 | 100 to 1000 | 100 to 1000 | – | – |
| CC(=O)Nc1cccc(Nc2ncc(C(N)=O)c(N[C@@H](C)C(N)=O)n2)c1 [Example 85, (S)-2-(3-acetamidophenylamino)-4-(1-amino-1-oxopropan-2-ylamino)pyrimidine-5-carboxamide] | 10 to 100 | 100 to 1000 | > 1000 | 10 to 100 | 100 to 1000 | – | – |
| COCC(=O)N(C)c1cccc(Nc2ncc(C(N)=O)c(N[C@H](C)c3ccccc3)n2)c1 [Example 86, (R)-2-(3-(2-methoxy-N-methylacetamido)phenylamino)-4-(1-phenylethylamino)pyrimidine-5-carboxamide] | 10 to 100 | 100 to 1000 | > 1000 | 1 to 10 | 1 to 10 | – | – |
| CC(=O)Nc1cccc(Nc2ncc(C(N)=O)c(NC[C@@H](O)CO)n2)c1 [Example 83, (R)-2-(3-acetamidophenylamino)-4-(2,3-dihydroxypropylamino)pyrimidine-5-carboxamide] | 10 to 100 | 100 to 1000 | > 1000 | 10 to 100 | 100 to 1000 | – | – |
| CC(=O)Nc1cccc(Nc2ncc(C(N)=O)c(NC[C@H](C)c3ccccc3)n2)c1 [Example 81, (R)-2-(3-acetamidophenylamino)-4-(2-phenylpropylamino)pyrimidine-5-carboxamide] | 10 to 100 | 100 to 1000 | > 1000 | 10 to 100 | 10 to 100 | – | – |
| COCC(=O)N(C)c1cccc(Nc2ncc(C(N)=O)c(NC3CCCC3)n2)c1 [Example 89, 4-(cyclopentylamino)-2-(3-(2-methoxy-N-methylacetamido)phenylamino)pyrimidine-5-carboxamide] | 10 to 100 | 10 to 100 | > 1000 | 1 to 10 | 1 to 10 | – | – |
| CC(=O)N(C)c1cccc(Nc2ncc(C(N)=O)c(N[C@H](C)c3ccccc3)n2)c1 [Example 87, (R)-2-(3-(N-methylacetamido)phenylamino)-4-(1-phenylethylamino)pyrimidine-5-carboxamide] | 10 to 100 | 100 to 1000 | > 1000 | 1 to 10 | 1 to 10 | – | – |
| CC(=O)N(C)c1cccc(Nc2ncc(C(N)=O)c(NC(C)C)n2)c1 [Example 77, 4-(isopropylamino)-2-(3-(N-methylacetamido)phenylamino)pyrimidine-5-carboxamide] | 10 to 100 | 100 to 1000 | > 1000 | 10 to 100 | 10 to 100 | – | – |

More lines, main results first:

| IC50 (TYK2) [nM] | IC50 (JAK1) [nM] | IC50 (Syk) [nM] | IC50 (JAK3) [nM] | IC50 (JAK2) [nM] | SMILES | inhibition at 0.2 µM [1] [%] | inhibition at 1 µM [1] [%] |
| --- | --- | --- | --- | --- | --- | --- | --- |
| 1 to 10 | 100 to 1000 | 100 to 1000 | 1 to 10 | 10 to 100 | COC(=O)Nc1cccc(Nc2ncc(C(N)=O)c(NCc3ccccc3)n2)c1 [Example 30, methyl 3-(4-(benzylamino)-5-carbamoylpyrimidin-2-ylamino)phenylcarbamate] | 8.3 | 63 |
| 1 to 10 | 10 to 100 | > 1000 | 1 to 10 | 10 to 100 | CC[C@H](C)[C@@H](CO)Nc1nc(Nc2cccc(NC(C)=O)c2)ncc1C(N)=O [Example 73, 2-(3-acetamidophenylamino)-4-((2S,3S)-1-hydroxy-3-methylpentan-2-ylamino)pyrimidine-5-carboxamide] | 17.1 | 55.6 |
| 1 to 10 | 10 to 100 | > 1000 | 1 to 10 | 10 to 100 | CNC(=O)Nc1cccc(Nc2ncc(C(N)=O)c(NCc3ccccc3)n2)c1 [Example 39, 4-(benzylamino)-2-(3-(3-methylureido)phenylamino)pyrimidine-5-carboxamide] | 15 | 60 |
| 1 to 10 | 10 to 100 | 100 to 1000 | 1 to 10 | 10 to 100 | CC(=O)Nc1cccc(Nc2ncc(C(N)=O)c(NC3CCCCC3)n2)c1 [Example 52, 2-(3-acetamidophenylamino)-4-(cyclohexylamino)pyrimidine-5-carboxamide] | 63 | 94 |
| 10 to 100 | 10 to 100 | > 1000 | 1 to 10 | 10 to 100 | CC(=O)Nc1cccc(Nc2ncc(C(N)=O)c(NC3CCOCC3)n2)c1 [Example 75, 2-(3-acetamidophenylamino)-4-(tetrahydro-2H-pyran-4-ylamino)pyrimidine-5-carboxamide] | 53.3 | 90.3 |
| 10 to 100 | 10 to 100 | > 1000 | 1 to 10 | 10 to 100 | COCC(=O)N(C)c1cccc(Nc2ncc(C(N)=O)c(NCc3ccccc3)n2)c1 [Example 90, 4-(benzylamino)-2-(3-(2-methoxy-N-methylacetamido)phenylamino)pyrimidine-5-carboxamide] | – | – |
| 10 to 100 | 10 to 100 | > 1000 | 1 to 10 | 10 to 100 | CC(=O)N(C)c1cccc(Nc2ncc(C(N)=O)c(NCc3ccccc3)n2)c1 [Example 79, 4-(benzylamino)-2-(3-(N-methylacetamido)phenylamino)pyrimidine-5-carboxamide] | – | – |
| 10 to 100 | 100 to 1000 | > 1000 | 1 to 10 | 10 to 100 | COCC(=O)Nc1cccc(Nc2ncc(C(N)=O)c(N[C@H](C)c3ccccc3)n2)c1 [Example 47, (R)-2-(3-(2-methoxyacetamido)phenylamino)-4-(1-phenylethylamino)pyrimidine-5-carboxamide] | 25.3 | 77.7 |
| 10 to 100 | 100 to 1000 | 100 to 1000 | 10 to 100 | 10 to 100 | CC(=O)Nc1cccc(Nc2ncc(C(N)=O)c(NC[C@H](C)O)n2)c1 [Example 82, (S)-2-(3-acetamidophenylamino)-4-(2-hydroxypropylamino)pyrimidine-5-carboxamide] | – | – |
| 10 to 100 | 10 to 100 | > 1000 | 1 to 10 | 1 to 10 | CC(=O)N(C)c1cccc(Nc2ncc(C(N)=O)c(NC3CCCC3)n2)c1 [Example 78, 4-(cyclopentylamino)-2-(3-(N-methylacetamido)phenylamino)pyrimidine-5-carboxamide] | – | – |
| 10 to 100 | 10 to 100 | 100 to 1000 | 1 to 10 | 10 to 100 | COC(CNc1nc(Nc2cccc(NC(C)=O)c2)ncc1C(N)=O)c1ccccc1 (stereo not drawn) [Example 84, 2-(3-acetamidophenylamino)-4-(2-methoxy-2-phenylethylamino)pyrimidine-5-carboxamide] | – | – |
| 10 to 100 | 10 to 100 | 100 to 1000 | 10 to 100 | 10 to 100 | COC(=O)Nc1cccc(Nc2ncc(C(N)=O)c(NCC(F)(F)F)n2)c1 [Example 4, Methyl 3-(5-carbamoyl-4-(2,2,2-trifluoroethylamino)pyrimidin-2-ylamino)phenylcarbamate] | – | – |
| 10 to 100 | 100 to 1000 | > 1000 | 10 to 100 | 100 to 1000 | CC(=O)Nc1cccc(Nc2ncc(C(N)=O)c(NCCN3CCOCC3)n2)c1 [Example 80, 2-(3-acetamidophenylamino)-4-(2-morpholinoethylamino)pyrimidine-5-carboxamide] | – | – |
| 10 to 100 | 100 to 1000 | 100 to 1000 | 10 to 100 | 100 to 1000 | NC(=O)c1cnc(Nc2cccc(NC(=O)C3CC3)c2)nc1NCC(F)(F)F [Example 5, 2-(3-(cyclopropanecarboxamido)phenylamino)-4-(2,2,2-trifluoroethylamino)pyrimidine-5-carboxamide] | – | – |
